The values below are quoted from earlier work in patent US6767550B1, “Hydroxyapatite based drug delivery implant for cancer treatment” (Berkeley Advanced Biomaterials, Inc., priority 2000, dated 2004).

For data set [1] the following is noted: in vivo.
For data set [2] the following is noted: 30 mg/m^2 intravenous bolus dose; 2.5 hours after administration.
For data set [3] the following is noted: cumulative dose of 700 mg.m^2.

Regarding `COc1cccc2c1C(=O)c1c(O)c3c(c(O)c1C2=O)C[C@@](O)(C(=O)CO)C[C@@H]3O[C@H]1C[C@H](N)[C@H](O)[C@H](C)O1` [doxorubicin], the oral absorption entry in data set [1] is “poor oral absorption”. Moreover, the marro drug concentration in data set [2] was 0.52 µg/g. For the same compound, the patients experiencing cardiotoxicity in data set [3] is recorded as 30-40%.
